Test results: PubChem BioAssay (NCI)
Where “and” joins values, the source holds several entries; their conditions need not be identical. Identical values can stand only once.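 Five concentrations, 48 hours, 96-well plates. GI50 = concentration required for 50% inhibition of growth. TGI: total growth inhibition.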

What was measured:
Assay in all cases: NCI-60 cell line screen, 48 h
HL-60(TB) leukemia = test system: HL-60(TB) leukemia
K-562 leukemia = test system: K-562 leukemia
SK-OV-3 ovarian = test system: SK-OV-3 ovarian
LOX IMVI melanoma = test system: LOX IMVI melanoma
786-0 renal = test system: 786-0 renal
NCI/ADR-RES ovarian = test system: NCI/ADR-RES ovarian
CAKI-1 renal = test system: CAKI-1 renal
HS 578T breast = test system: HS 578T breast
UACC-62 melanoma = test system: UACC-62 melanoma
DU-145 prostate = test system: DU-145 prostate
OVCAR-4 ovarian = test system: OVCAR-4 ovarian
HOP-62 NSCLC = test system: HOP-62 NSCLC
SF-295 CNS = test system: SF-295 CNS
CCRF-CEM leukemia = test system: CCRF-CEM leukemia
MALME-3M melanoma = test system: MALME-3M melanoma
MDA-MB-231 breast = test system: MDA-MB-231 breast
U251 CNS = test system: U251 CNS
RXF 393 renal = test system: RXF 393 renal
M14 melanoma = test system: M14 melanoma
SW-620 colon = test system: SW-620 colon
TK-10 renal = test system: TK-10 renal
COLO 205 colon = test system: COLO 205 colon
UACC-257 melanoma = test system: UACC-257 melanoma
A549 NSCLC = test system: A549 NSCLC
SF-539 CNS = test system: SF-539 CNS
OVCAR-5 ovarian = test system: OVCAR-5 ovarian
HOP-92 NSCLC = test system: HOP-92 NSCLC
HT29 colon = test system: HT29 colon
A498 renal = test system: A498 renal
MDA-MB-435 = test system: MDA-MB-435

Question: Which results are given for `O=C(O)CCC1CCC(c2cc(F)ccc2F)(S(=O)(=O)c2ccc(Cl)cc2)CC1` (stereo unspecified)?
Answer: GI50 (HL-60(TB) leukemia): 31.3 µM and > 81 µM; TGI (HL-60(TB) leukemia): > 100 µM; GI50 (K-562 leukemia): 34.6 µM and 34.7 µM; TGI (K-562 leukemia): > 100 µM; GI50 (SK-OV-3 ovarian): 32.1 µM and > 100 µM; TGI (SK-OV-3 ovarian): > 100 µM; GI50 (LOX IMVI melanoma): 40.3 µM and > 66.5 µM; TGI (LOX IMVI melanoma): > 100 µM; GI50 (786-0 renal): 23.8 µM and > 100 µM; TGI (786-0 renal): > 100 µM; GI50 (NCI/ADR-RES ovarian): 25.8 µM and > 74.3 µM; TGI (NCI/ADR-RES ovarian): 99.7 µM and > 100 µM; TGI (CAKI-1 renal): 45.1 µM and > 100 µM; GI50 (HS 578T breast): 17.8 µM and 49.3 µM; TGI (HS 578T breast): 55.4 µM and > 100 µM; GI50 (UACC-62 melanoma): 28.2 µM and 97.1 µM; TGI (UACC-62 melanoma): > 100 µM; GI50 (DU-145 prostate): 93.4 µM and > 100 µM; TGI (DU-145 prostate): > 100 µM; GI50 (OVCAR-4 ovarian): 30.5 µM and > 65.6 µM; TGI (OVCAR-4 ovarian): > 100 µM; GI50 (HOP-62 NSCLC): 30.5 µM and > 100 µM; TGI (HOP-62 NSCLC): > 100 µM; GI50 (SF-295 CNS): > 56.9 µM; TGI (SF-295 CNS): > 100 µM; GI50 (CCRF-CEM leukemia): 29 µM and > 100 µM; TGI (CCRF-CEM leukemia): > 100 µM; GI50 (MALME-3M melanoma): 10.2 µM and > 100 µM; TGI (MALME-3M melanoma): 96.4 µM and > 100 µM; GI50 (MDA-MB-231 breast): 30.4 µM and > 100 µM; TGI (MDA-MB-231 breast): > 100 µM; GI50 (U251 CNS): 32.7 µM and > 100 µM; TGI (U251 CNS): > 100 µM; GI50 (RXF 393 renal): 12.5 µM and 76.6 µM; TGI (RXF 393 renal): 78.8 µM and > 100 µM; GI50 (M14 melanoma): 15.9 µM and > 100 µM; TGI (M14 melanoma): 52.5 µM and > 100 µM; GI50 (SW-620 colon): 32.2 µM and > 100 µM; TGI (SW-620 colon): > 100 µM; GI50 (TK-10 renal): 27.3 µM and > 100 µM; TGI (TK-10 renal): > 100 µM; GI50 (COLO 205 colon): 42.3 µM and > 100 µM; TGI (COLO 205 colon): > 100 µM; GI50 (UACC-257 melanoma): 44 µM and > 100 µM; TGI (UACC-257 melanoma): > 100 µM; GI50 (A549 NSCLC): 44.4 µM and > 100 µM; TGI (A549 NSCLC): > 100 µM; GI50 (SF-539 CNS): 29.4 µM and > 100 µM; TGI (SF-539 CNS): > 100 µM; GI50 (OVCAR-5 ovarian): 92.2 µM and > 100 µM; TGI (OVCAR-5 ovarian): > 100 µM; TGI (HOP-92 NSCLC): 95.1 µM and > 100 µM; GI50 (HT29 colon): 30.3 µM and > 100 µM; TGI (HT29 colon): > 100 µM; TGI (A498 renal): 67.1 µM and > 100 µM; GI50 (MDA-MB-435): 14.5 µM and 26.5 µM
